Measured values: patent publication US20100227872A1, “PYRAZINE DERIVATIVES” (priority 2007, published 2010)

Legend:
Type in all cases: cell-based
[1] = biological target: T1, Human Nav1.8 (Homo sapiens, UniProt Q9Y5Y9); test: VIPR Assay for Nav1.8 Compounds (FRET membrane potential, deltamethrin opener); settings: HEK293 cells expressing Human Nav1.8; deltamethrin as opener; average of replicates
T1 construct: expressed in transfected cells; host or cells: HEK293 (selected with Geneticine)

[2] = biological target: T2, Human Nav1.5 (Homo sapiens, UniProt Q14524); test: Nav1.5 Assay (VIPR, as Nav1.8 assay); settings: HEK293 cells expressing Human Nav1.5; average of replicates
T2 construct: expressed in transfected cells; host or cells: HEK293
T2 sequence (Q14524 whole entry): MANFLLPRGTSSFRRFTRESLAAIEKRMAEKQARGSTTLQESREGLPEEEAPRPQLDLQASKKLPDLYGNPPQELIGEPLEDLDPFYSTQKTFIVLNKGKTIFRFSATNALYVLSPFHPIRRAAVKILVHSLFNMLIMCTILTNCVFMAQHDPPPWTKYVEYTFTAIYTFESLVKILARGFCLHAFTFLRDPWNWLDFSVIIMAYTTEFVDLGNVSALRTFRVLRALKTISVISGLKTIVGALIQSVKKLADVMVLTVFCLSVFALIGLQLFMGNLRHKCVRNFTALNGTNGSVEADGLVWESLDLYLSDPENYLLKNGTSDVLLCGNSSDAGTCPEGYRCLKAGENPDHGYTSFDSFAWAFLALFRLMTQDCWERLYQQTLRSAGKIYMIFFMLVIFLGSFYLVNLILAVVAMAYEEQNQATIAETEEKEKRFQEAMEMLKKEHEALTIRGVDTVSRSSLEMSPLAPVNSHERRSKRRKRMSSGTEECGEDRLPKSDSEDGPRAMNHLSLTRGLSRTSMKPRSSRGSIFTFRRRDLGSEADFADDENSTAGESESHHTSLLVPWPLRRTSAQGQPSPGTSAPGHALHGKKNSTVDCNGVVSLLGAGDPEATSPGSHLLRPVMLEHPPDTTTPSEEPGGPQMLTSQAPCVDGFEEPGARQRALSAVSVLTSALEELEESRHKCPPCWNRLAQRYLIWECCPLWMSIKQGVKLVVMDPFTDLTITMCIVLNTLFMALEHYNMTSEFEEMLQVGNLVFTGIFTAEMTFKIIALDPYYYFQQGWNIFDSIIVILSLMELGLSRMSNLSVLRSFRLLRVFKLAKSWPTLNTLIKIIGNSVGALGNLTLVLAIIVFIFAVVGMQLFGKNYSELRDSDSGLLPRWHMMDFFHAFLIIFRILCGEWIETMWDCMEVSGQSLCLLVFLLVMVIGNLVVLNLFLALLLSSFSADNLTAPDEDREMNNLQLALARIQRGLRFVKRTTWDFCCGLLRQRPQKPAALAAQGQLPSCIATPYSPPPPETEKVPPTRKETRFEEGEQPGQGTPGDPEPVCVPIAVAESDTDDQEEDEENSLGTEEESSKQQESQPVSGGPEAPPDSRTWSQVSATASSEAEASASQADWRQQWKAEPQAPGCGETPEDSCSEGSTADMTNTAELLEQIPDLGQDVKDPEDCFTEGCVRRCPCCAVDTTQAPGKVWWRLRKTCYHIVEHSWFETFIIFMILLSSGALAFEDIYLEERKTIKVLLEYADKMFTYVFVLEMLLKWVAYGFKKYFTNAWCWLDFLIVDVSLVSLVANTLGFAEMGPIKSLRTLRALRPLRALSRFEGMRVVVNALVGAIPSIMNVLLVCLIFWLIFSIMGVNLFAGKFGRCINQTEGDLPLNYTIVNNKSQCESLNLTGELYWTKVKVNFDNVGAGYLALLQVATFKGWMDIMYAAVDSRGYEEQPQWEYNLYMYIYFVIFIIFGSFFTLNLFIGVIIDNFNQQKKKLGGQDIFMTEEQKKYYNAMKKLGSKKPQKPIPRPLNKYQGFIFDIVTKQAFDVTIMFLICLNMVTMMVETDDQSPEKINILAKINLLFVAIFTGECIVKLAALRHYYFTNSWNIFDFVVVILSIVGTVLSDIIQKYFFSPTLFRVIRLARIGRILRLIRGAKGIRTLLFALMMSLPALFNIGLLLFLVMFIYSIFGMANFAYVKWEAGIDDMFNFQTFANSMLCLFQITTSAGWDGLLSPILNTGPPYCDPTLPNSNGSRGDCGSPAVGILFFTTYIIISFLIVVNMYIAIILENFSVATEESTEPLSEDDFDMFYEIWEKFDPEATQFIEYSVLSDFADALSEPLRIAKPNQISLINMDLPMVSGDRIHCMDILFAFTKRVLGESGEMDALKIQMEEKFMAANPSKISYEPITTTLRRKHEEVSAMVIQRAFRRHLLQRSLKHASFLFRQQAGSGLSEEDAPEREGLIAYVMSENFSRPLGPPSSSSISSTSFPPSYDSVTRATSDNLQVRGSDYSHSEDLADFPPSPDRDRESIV
Experimental: The Nav1.5 assay is performed in HEK293 cells expressing Human Nav1.5 in the same way as the Nav1.8 assay described above.

[3] = tested on: tetrodotoxin-sensitive voltage-gated sodium channels including NaV1.2, NaV1.3 and NaV1.7; test: TTX-S Assay in SHSY-5Y cell line (VIPR, veratridine opener); settings: read-out: TTX-S IC50, veratridine 50 μM as opener, average of replicates

T1 sequence (Q9Y5Y9 whole entry): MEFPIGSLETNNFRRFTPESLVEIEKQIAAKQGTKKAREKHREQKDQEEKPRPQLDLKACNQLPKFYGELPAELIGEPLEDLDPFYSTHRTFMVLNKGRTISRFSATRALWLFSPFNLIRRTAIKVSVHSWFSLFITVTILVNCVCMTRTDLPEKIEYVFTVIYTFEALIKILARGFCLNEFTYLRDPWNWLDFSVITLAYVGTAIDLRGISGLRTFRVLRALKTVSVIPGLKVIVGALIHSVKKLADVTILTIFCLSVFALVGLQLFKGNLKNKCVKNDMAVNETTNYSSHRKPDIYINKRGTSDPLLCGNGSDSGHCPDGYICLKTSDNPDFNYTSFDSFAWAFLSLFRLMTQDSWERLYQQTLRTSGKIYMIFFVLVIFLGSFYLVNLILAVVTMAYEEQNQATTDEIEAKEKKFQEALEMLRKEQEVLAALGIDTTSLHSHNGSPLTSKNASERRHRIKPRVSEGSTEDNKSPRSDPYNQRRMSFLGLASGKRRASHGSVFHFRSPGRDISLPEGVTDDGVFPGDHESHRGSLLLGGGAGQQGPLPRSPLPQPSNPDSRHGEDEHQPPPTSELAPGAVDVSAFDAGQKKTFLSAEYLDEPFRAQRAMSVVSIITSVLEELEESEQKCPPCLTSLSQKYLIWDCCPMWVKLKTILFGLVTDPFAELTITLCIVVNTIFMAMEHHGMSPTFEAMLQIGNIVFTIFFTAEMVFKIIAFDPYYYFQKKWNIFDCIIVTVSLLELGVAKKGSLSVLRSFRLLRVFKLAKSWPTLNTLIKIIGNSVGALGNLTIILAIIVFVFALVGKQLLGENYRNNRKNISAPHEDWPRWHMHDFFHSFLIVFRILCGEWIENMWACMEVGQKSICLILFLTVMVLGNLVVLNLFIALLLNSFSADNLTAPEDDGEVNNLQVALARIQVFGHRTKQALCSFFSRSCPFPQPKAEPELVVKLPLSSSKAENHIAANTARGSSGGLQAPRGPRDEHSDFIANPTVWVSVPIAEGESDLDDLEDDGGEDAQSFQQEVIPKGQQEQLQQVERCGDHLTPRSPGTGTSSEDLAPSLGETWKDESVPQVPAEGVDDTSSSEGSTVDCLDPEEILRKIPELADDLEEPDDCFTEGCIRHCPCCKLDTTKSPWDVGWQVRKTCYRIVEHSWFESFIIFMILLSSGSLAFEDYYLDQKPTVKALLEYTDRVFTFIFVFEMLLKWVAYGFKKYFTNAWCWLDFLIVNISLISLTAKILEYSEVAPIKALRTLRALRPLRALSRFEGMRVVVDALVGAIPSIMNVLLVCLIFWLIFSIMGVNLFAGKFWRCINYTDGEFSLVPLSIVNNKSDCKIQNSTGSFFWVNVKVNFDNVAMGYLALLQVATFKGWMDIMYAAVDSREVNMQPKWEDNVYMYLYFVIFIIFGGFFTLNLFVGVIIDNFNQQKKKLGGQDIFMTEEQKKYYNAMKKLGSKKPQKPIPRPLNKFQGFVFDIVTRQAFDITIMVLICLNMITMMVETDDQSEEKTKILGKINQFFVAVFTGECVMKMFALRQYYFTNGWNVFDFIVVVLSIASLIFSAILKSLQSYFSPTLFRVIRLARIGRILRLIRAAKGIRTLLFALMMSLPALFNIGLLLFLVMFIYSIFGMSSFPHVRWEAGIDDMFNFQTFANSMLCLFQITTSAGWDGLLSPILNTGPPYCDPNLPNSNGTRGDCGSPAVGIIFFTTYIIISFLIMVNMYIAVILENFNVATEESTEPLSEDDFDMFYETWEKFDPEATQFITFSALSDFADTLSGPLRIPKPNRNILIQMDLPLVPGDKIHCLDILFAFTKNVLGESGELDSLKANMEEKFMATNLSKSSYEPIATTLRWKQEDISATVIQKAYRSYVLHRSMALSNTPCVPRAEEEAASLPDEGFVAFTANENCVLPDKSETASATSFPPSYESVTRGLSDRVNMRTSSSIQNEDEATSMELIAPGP

Compound	IC50 [1] [µM]	IC50 [2] [µM]	IC50 [3] [µM]
CC(C)n1nccc1C(=O)Nc1cnc(-c2ccccc2OC(F)(F)F)c(N)n1 [Example 5, N-{6-Amino-5-[2-(trifluoromethoxy)phenyl]pyrazin-2-v1}-1-isopropyl-1H-pyrazole-5-carboxamide]	19	> 32	29
Nc1nc(NC(=O)c2conc2C(F)(F)F)cnc1-c1cc(F)ccc1C(F)(F)F [Example 14, N-{6-Amino-5-[5-fluoro-2-(trifluoromethyl)phenyl]ovrazin-2-yl}-3-trifluoromethylisoxazole-4-carboxamide]	2.5	> 32	31
Nc1nc(NC(=O)c2conc2C(F)(F)F)cnc1-c1ccccc1OC(F)(F)F [Example 12, N-{6-Amino-5-[2-(trifluoromethoxy)phenyl]pyrazin-2-yl}-3-(trifluoromethyl)isoxazole-4-carboxamide]	2.8	> 32	21
Cc1nocc1C(=O)Nc1cnc(-c2ccccc2C(F)(F)F)c(N)n1 [Example 2, N-{6-Amino-5-[2-(trifluoromethyl)phenyl]pyrazin-2-yl}-3-methylisoxazole-4-carboxamide]	8.7	–	> 32
COCc1nocc1C(=O)Nc1cnc(-c2ccccc2OC(F)(F)F)c(N)n1 [Example 6, N-{6-Amino-5-[2-(trifluoromethoxy)phenyl]pyrazin-2-yl}-3-(methoxymethyl)isoxazole-4-carboxamide]	20	> 32	19
CCOc1ccc(OC(F)(F)F)c(-c2ncc(NC(=O)c3conc3C)nc2N)c1 [Example 17, N-(6-Amino-5-[5-ethoxy-2-{trifluoromethoxy)phenyl]pyrazin-2-yl}-3-methylisoxazole-4-carboxamide]	1.9	> 32	–
CCn1nccc1C(=O)Nc1cnc(-c2ccccc2OC(F)(F)F)c(N)n1 [Example 4, N-{6-Amino-5-[2-(trifluoromethoxy)phenyl]pyrazin-2-yl}-1-ethyl-1H-pyrazole-5-carboxamide]	27	> 32	> 32
Cc1nocc1C(=O)Nc1cnc(-c2cc(Cl)ccc2OC(F)(F)F)c(N)n1 [Example 3, N-{6-Amino-5-[5-chloro-2-(trifluoromethoxy)phenyl]pyrazin-2-yl}-3-methylisoxazole-4-carboxamide]	4.3	> 32	16
COCc1oncc1C(=O)Nc1cnc(-c2ccccc2OC(F)(F)F)c(N)n1 [Example 9, N-{6-Amino-5-[2-(trifluoromethoxy)phenyl]pyrazin-2-yl}-5-(methoxymethyl)isoxazole-4-carboxamide]	20	> 32	30
CCOc1ccc(OC(F)(F)F)c(-c2ncc(NC(=O)c3ccnn3C)nc2N)c1 [Example 16, N-{6-Amino-5-[5-ethoxy-2-(trifluoromethoxy)phenyl]pyrazin-2-yl}-1-methyl-1H-pyrazole-5-carboxamide]	19	> 32	–
COCc1nocc1C(=O)Nc1cnc(-c2cc(F)ccc2C(F)(F)F)c(N)n1 [Example 8, N-{6-Amino-5-[5-fluoro-2-(trifluoromethyl)phenyl]pyrazin-2-yl}-3-(methoxymethyl)isoxazole-4-carboxamide]	11	> 32	–
Cc1nocc1C(=O)Nc1cnc(-c2cc(F)ccc2OC(F)(F)F)c(N)n1 [Example 13, N-{6-Amino-5-[5-fluoro-2-(trifluoromethoxy)phenyl]pyrazin-2-yl}-3-methylisoxazole-4-carboxamide]	3.8	> 32	> 32
Cc1nocc1C(=O)Nc1cnc(-c2cc(F)ccc2C(F)(F)F)c(N)n1 [Example 10, N-{6-amino-5-[5-fluoro-2-(trifluoromethyl)phenyl]pyrazin-2-yl}-3-methylisoxazole-4-carboxamide]	4.7	> 32	> 32
Cn1nccc1C(=O)Nc1cnc(-c2cc(F)ccc2OC(F)(F)F)c(N)n1 [Example 15]	16	> 32	> 32
Cc1nocc1C(=O)Nc1cnc(-c2ccccc2OC(F)(F)F)c(N)n1 [Example 1, N-{6-Amino-5-[2-(trifluoromethoxy)phenyl]pyrazin-2-yl}-3-methylisoxazole-4-carboxamide]	3.6	> 32	30
Cn1nccc1C(=O)Nc1cnc(-c2cc(Cl)ccc2OC(F)(F)F)c(N)n1 [Example 11, N-{6-Amino-5-[5-chloro-2-(trifluoromethoxy)phenyl]pyrazin-2-yl}-methyl-1H-pyrazole-5-carboxamide]	12	> 32	> 32
COCc1nocc1C(=O)Nc1cnc(-c2cc(Cl)ccc2OC(F)(F)F)c(N)n1 [Example 7]	4.6	21	17
